Measured values reported in patent US9695155B2, “Herbicidal substituted pyrimidinyloxy benzene compounds” (E. I. DU PONT DE NEMOURS AND COMPANY, priority 2013, dated 2017).

Assays:
rice = assay: Test C flooded paddy test; type: in vivo, Oryza sativa; settings: Flood, scale 0 to 100 (0 no effect, 100 complete control), 13 to 15 days
Summary of the method: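 Pots were flooded to 3 cm above the soil surface at treatment, compound applied directly to the paddy water, and that depth held throughout. Plants were kept in a greenhouse for 13 to 15 days, then visually rated against untreated controls.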

velvetleaf = assay: Test E preemergence; type: in vivo, Abutilon theophrasti; settings: for Velvetleaf plant response rating: scale 0 to 100 (0 no effect, 100 complete control); for Plant response rating, Velvetleaf: scale 0 to 100, 0 no effect, 100 complete control
Summary of the method: (§1)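 Compound in a non-phytotoxic solvent mixture with surfactant was applied preemergence to seeds in silt loam soil, or postemergence to plants 2 to 18 cm tall grown in peat-based potting medium. Plants were kept in a greenhouse for 14 to 21 days, then rated visually against untreated controls on a 0 (no effect) to 100 (complete control) scale.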

Brazilian crabgrass = assay: Test E preemergence; type: in vivo, Digitaria horizontalis; settings: for Crabgrass, Brazil plant response rating: scale 0 to 100 (0 no effect, 100 complete control); for Plant response rating, Crabgrass, Brazil: scale 0 to 100, 0 no effect, 100 complete control
Summary of the method: as §1

giant foxtail = assay: Test E preemergence; type: in vivo, Setaria faberii; settings: for Foxtail, Giant plant response rating: scale 0 to 100 (0 no effect, 100 complete control); for Plant response rating, Foxtail, Giant: scale 0 to 100, 0 no effect, 100 complete control
Summary of the method: as §1

sandbur = assay: Test E preemergence; type: in vivo, Cenchrus echinatus; settings: for Sandbur plant response rating: scale 0 to 100 (0 no effect, 100 complete control); for Plant response rating, Sandbur: scale 0 to 100, 0 no effect, 100 complete control
Summary of the method: as §1

arrowleaf sida = assay: Test E preemergence; type: in vivo, Sida rhombifolia; settings: for Arrowleaf Sida plant response rating: scale 0 to 100 (0 no effect, 100 complete control); for Plant response rating, Arrowleaf Sida: scale 0 to 100, 0 no effect, 100 complete control
Summary of the method: as §1

field bindweed = assay: Test E preemergence; type: in vivo, Convolvulus arvensis; settings: for Field Bindweed plant response rating: scale 0 to 100 (0 no effect, 100 complete control); for Plant response rating, Field Bindweed: scale 0 to 100, 0 no effect, 100 complete control
Summary of the method: as §1

morningglory = assay: Test E preemergence; type: in vivo, Ipomoea coccinea; settings: for Morningglory plant response rating: scale 0 to 100 (0 no effect, 100 complete control); for Plant response rating, Morningglory: scale 0 to 100, 0 no effect, 100 complete control
Summary of the method: as §1

nightshade = assay: Test E preemergence; type: in vivo, Solanum ptycanthum; settings: for Nightshade plant response rating: scale 0 to 100 (0 no effect, 100 complete control); for Plant response rating, Nightshade: scale 0 to 100, 0 no effect, 100 complete control
Summary of the method: as §1

yellow nutsedge = assay: Test E preemergence; type: in vivo, Cyperus esculentus; settings: for Nutsedge, Yellow plant response rating: scale 0 to 100 (0 no effect, 100 complete control); for Plant response rating, Nutsedge, Yellow: scale 0 to 100, 0 no effect, 100 complete control
Summary of the method: as §1

FC(F)(F)c1cnn(-c2ccccc2Oc2ncc(Br)cn2)c1 [Compound 18, 5-bromo-2-[2-[4-(trifluoromethyl)-1H-pyrazol-1-yl]phenoxy]pyrimidine]
Plant response rating, Rice (rice; 31 g ai/ha): 0
Plant response rating, Rice (rice; 62 g ai/ha): 0
Plant response rating, Rice (rice; 125 g ai/ha): 0
Plant response rating, Rice (rice; 250 g ai/ha): 10
Velvetleaf plant response rating (velvetleaf; 16 g ai/ha): 25
Velvetleaf plant response rating (velvetleaf; 31 g ai/ha): 95
Velvetleaf plant response rating (velvetleaf; 62 g ai/ha): 100
Plant response rating, Velvetleaf (velvetleaf; 125 g ai/ha): 100
Plant response rating, Velvetleaf (velvetleaf; 250 g ai/ha): 100
Crabgrass, Brazil plant response rating (Brazilian crabgrass; 16 g ai/ha): 0
Crabgrass, Brazil plant response rating (Brazilian crabgrass; 31 g ai/ha): 95
Crabgrass, Brazil plant response rating (Brazilian crabgrass; 62 g ai/ha): 98
Plant response rating, Crabgrass, Brazil (Brazilian crabgrass; 125 g ai/ha): 100
Plant response rating, Crabgrass, Brazil (Brazilian crabgrass; 250 g ai/ha): 100
Foxtail, Giant plant response rating (giant foxtail; 16 g ai/ha): 0
Foxtail, Giant plant response rating (giant foxtail; 31 g ai/ha): 15
Foxtail, Giant plant response rating (giant foxtail; 62 g ai/ha): 65
Plant response rating, Foxtail, Giant (giant foxtail; 125 g ai/ha): 95
Plant response rating, Foxtail, Giant (giant foxtail; 250 g ai/ha): 98
Sandbur plant response rating (sandbur; 16 g ai/ha): 0
Sandbur plant response rating (sandbur; 31 g ai/ha): 0
Sandbur plant response rating (sandbur; 62 g ai/ha): 0
Plant response rating, Sandbur (sandbur; 125 g ai/ha): 5
Plant response rating, Sandbur (sandbur; 250 g ai/ha): 75
Arrowleaf Sida plant response rating (arrowleaf sida; 16 g ai/ha, preemergence): 0
Arrowleaf Sida plant response rating (arrowleaf sida; 31 g ai/ha, preemergence): 5
Plant response rating, Arrowleaf Sida (arrowleaf sida; Preemergence, 62 g ai/ha): 70
Plant response rating, Arrowleaf Sida (arrowleaf sida; preemergence, 125 g ai/ha): 85
Plant response rating, Arrowleaf Sida (arrowleaf sida; preemergence, 250 g ai/ha): 95
Field Bindweed plant response rating (field bindweed; 16 g ai/ha): 0
Field Bindweed plant response rating (field bindweed; 31 g ai/ha): 0
Field Bindweed plant response rating (field bindweed; 62 g ai/ha): 30
Plant response rating, Field Bindweed (field bindweed; 125 g ai/ha): 40
Plant response rating, Field Bindweed (field bindweed; 250 g ai/ha): 40
Morningglory plant response rating (morningglory; 16 g ai/ha): 0
Morningglory plant response rating (morningglory; 31 g ai/ha): 0
Morningglory plant response rating (morningglory; 62 g ai/ha): 0
Plant response rating, Morningglory (morningglory; 125 g ai/ha): 0
Plant response rating, Morningglory (morningglory; 250 g ai/ha): 35
Nightshade plant response rating (nightshade; 16 g ai/ha): 0
Nightshade plant response rating (nightshade; 31 g ai/ha): 95
Nightshade plant response rating (nightshade; 62 g ai/ha): 98
Plant response rating, Nightshade (nightshade; 125 g ai/ha): 100
Plant response rating, Nightshade (nightshade; 250 g ai/ha): 100
Nutsedge, Yellow plant response rating (yellow nutsedge; 16 g ai/ha): 0
Nutsedge, Yellow plant response rating (yellow nutsedge; 31 g ai/ha): 0
Nutsedge, Yellow plant response rating (yellow nutsedge; 62 g ai/ha): 0
Plant response rating, Nutsedge, Yellow (yellow nutsedge; 125 g ai/ha): 0
Plant response rating, Nutsedge, Yellow (yellow nutsedge; 250 g ai/ha): 10
